Test results from article PMC11969548 (2025).
One block for each molecule: values may come before it.

Key:
[1] = tested on: P27 (DD aptagel) (DNA, aptamer) CGACCGAGGGTACCGCAATAGTACTTA/TTGTTCGCCTATTGTGGGTCGGGTCG; assay: angular SPR of hydrogel film; conditions: PBS, 2 mM Mg2+, 200-fold diluted rat plasma, 37 °C
[2] = tested on: PolyA (PA) aptagel (DNA, single strand) AAAAAAAAAAAAAAAAAAAAAAAAAAA; assay: angular SPR of hydrogel film; conditions: PBS, 2 mM Mg2+; 37 °C; 1 mM vancomycin; 3 mM poly A, [ene]/[SH] 4
[3] = tested on: P27 (DD aptagel) (DNA, aptamer) CGACCGAGGGTACCGCAATAGTACTTA/TTGTTCGCCTATTGTGGGTCGGGTCG; assay: angular SPR of hydrogel film, dissociation phase fit; conditions: PBS, 2 mM Mg2+; pH 7.4, 37 °C; vancomycin below 50 µM; rises to 0.7 above 100 µM; apparent
[4] = tested on: P27.i (monolayer) (DNA, aptamer) CGACCGAGGGTACCGCAATAGTACTTA/TTGTTCGCCTATTGCGGGTCGGGTCG; assay: SPR, dissociation phase fit; conditions: PBS, 2 mM Mg2+, pH 7.4, 37 °C, split 2 in solution, independent of analyte concentration
[5] = tested on: Full (full-length parent aptamer, aptagel) (DNA, aptamer) CGACCGAGGGTACCGCAATAGTACTTATTGTTCGCCTATTGTGGGTCGGGTCG; assay: angular SPR and QCM-D of hydrogel film; conditions: PBS, 2 mM Mg2+; 37 °C; 1 mM vancomycin; 1 mM aptamer; partly irreversible
[6] = tested on: P27 (MD aptagel) (DNA, aptamer) CGACCGAGGGTACCGCAATAGTACTTA/TTGTTCGCCTATTGTGGGTCGGGTCG; assay: angular SPR and QCM-D of hydrogel film; conditions: PBS, 2 mM Mg2+; 37 °C; 1 mM vancomycin; 1 mM aptamer; reversible
[7] = tested on: P27 (MM aptagel) (DNA, aptamer) CGACCGAGGGTACCGCAATAGTACTTA/TTGTTCGCCTATTGTGGGTCGGGTCG; assay: angular SPR and QCM-D of hydrogel film; conditions: PBS, 2 mM Mg2+; 37 °C; 1 mM vancomycin; 1 mM aptamer; reversible; smallest response
[8] = tested on: P27 (monolayer) (DNA, aptamer) CGACCGAGGGTACCGCAATAGTACTTA/TTGTTCGCCTATTGTGGGTCGGGTCG; assay: SPR, dissociation phase fit; conditions: PBS, 2 mM Mg2+, pH 7.4, 37 °C, split 2 in solution, independent of analyte concentration
[9] = concentration matching refractive index of 10 µM vancomycin

binding [1, 9]: no
SMILES: CC1(C)S[C@@H]2[C@H](NC(=O)[C@H](N)c3ccccc3)C(=O)N2[C@H]1C(=O)O

binding [2]: no
koff [3]: ~ 0.2 min^-1
koff [4]: ~ 0.16 min^-1
binding [5]: yes
binding [6]: yes
binding [7]: weak
koff [8]: 0.0033 s⁻¹
SMILES: CN[C@H](CC(C)C)C(=O)N[C@H]1C(=O)N[C@@H](CC(N)=O)C(=O)N[C@H]2C(=O)N[C@H]3C(=O)N[C@H](C(=O)N[C@H](C(=O)O)c4cc(O)cc(O)c4-c4cc3ccc4O)[C@H](O)c3ccc(c(Cl)c3)Oc3cc2cc(c3O[C@@H]2O[C@H](CO)[C@@H](O)[C@H](O)[C@H]2O[C@H]2C[C@](C)(N)[C@H](O)[C@H](C)O2)Oc2ccc(cc2Cl)[C@H]1O

binding [1, 9]: no
SMILES: CO[C@H]1/C=C/O[C@@]2(C)Oc3c(C)c(O)c4c(O)c(c(/C=N/N5CCN(C)CC5)c(O)c4c3C2=O)NC(=O)/C(C)=C\C=C\[C@H](C)[C@H](O)[C@@H](C)[C@@H](O)[C@@H](C)[C@H](OC(C)=O)[C@@H]1C

binding ([1]; 80 µM glucose): no
SMILES: OC[C@H]1OC(O)[C@H](O)[C@@H](O)[C@@H]1O (stereo partly shown)
